Measurements as given in patent US20130079309A1, “Method Of Treating Acute Lung Injury Using Sphingosine 1 Phosphate Analogs Or Sphingosine 1 Phosphate Receptor Agonists” (The Board of Trustees of the University of Illinois, priority 2010, published 2013).
Residues, ends and D or L forms follow the SMILES beside them. *: point of attachment. Cbz = O=C(OCc1ccccc1)*

Assays:
HPAEC [1] = experiment: Transendothelial electrical resistance (TER) of HPAEC; assay type: cell-based, human; conditions: for maximal percentage TER change compared with S1P and FTY720 / maximal TER change: within 60 min; for maximal TER change: 10 μM
Experimental: Cells were grown at 37° C. in a 5% CO2 incubator, and passages 6 to 9 were used for experiments. Media were changed 1 day before experimentation.

S1P receptor 1 (S1PR1) [2] = target: T1, S1P receptor 1 (S1PR1) (Homo sapiens, UniProt P21453); experiment: S1PR1 protein expression in HPAEC by Western blot; assay type: cell-based; set-up: Cells were collected and S1PR1 expression level was detected by Western blot; endogenous in cells; host or cells: HPAEC (human pulmonary artery endothelial cells); conditions: for S1PR1 expression level compared to control: 1 μM (SEW2871 10 μM), 4 h
Source text: Cells were collected and S1PR1 expression level was detected by Western blot.

β-arrestin = conditions: 1 μM (SEW2871 10 μM; (S)-FTY720-phosphonate 1, 10, 50 μM), 5 h
Experimental: After another 2 h-incubation with fluorescence substrate, the fluorescence intensity (blue and green channels) were detected and the blue/green emission ratio was used as the activation indicator.

S1P receptor 1 (S1PR1) [3] = target: T1, S1P receptor 1 (S1PR1); experiment: Ubiquitination of S1PR1 in HPAEC (immunoprecipitation, ubiquitin Ab); conditions: for ubiquitination of S1PR1 at 2 h: 1 μM (SEW2871 10 μM)
Source text: S1PR1 was immunoprecipitated by S1PR1Ab, and ubiquitination of S1PR1 was detected by ubiquitin Ab.

HPAEC [4] = experiment: Pharmacologic inhibitor effects on barrier enhancement (TER); conditions: 1 μM agonist, 60 min; for % Inhibition of Maximal TER Response (of Agonist-Only Control), PTX: 2-h preincubation 100 ng/ml PTX; for % Inhibition of Maximal TER Response (of Agonist-Only Control), MβCD: 2-h preincubation 2 mM MβCD; for % Inhibition of Maximal TER Response (of Agonist-Only Control), Gen: 30-min preincubation 200 μM genistein
Experimental: Endothelial cells were grown to confluence in polycarbonate wells containing evaporated gold microelectrodes (surface area, 10^−3 cm^2) in series with a large gold counter electrode (1 cm^2) connected to a phase-sensitive lock-in amplifier. Current was applied across the electrodes by a 4,000-Hz AC voltage source with amplitude of 1 V in series with a 1 MΩ resistance to approximate a constant current source (˜1 μA). The in-phase and out-of-phase voltages between the electrodes were monitored in real time with the lock-in amplifier and subsequently converted to scalar measurements of transendothelial impedance, of which resistance was the primary focus. TER was monitored for 30 minutes to establish a baseline resistance (R0) which, for bovine pulmonary endothelium, was typically between 8 to 12×10^3Ω (wells with R0<7×10^3Ω were rejected). As cells adhere and spread out on the microelectrode, TER increases (maximal at confluence), whereas cell retraction, rounding, or loss of adhesion is reflected by a decrease in TER. These measurements provide a highly sensitive biophysical assay that indicates the state of cell shape and focal adhesion. Values from each microelectrode were pooled at discrete time points and plotted versus time as the mean±SE of the mean. TER values from each microelectrode were pooled as discrete time points and plotted versus time as the mean±S.E.M.
In this experiment, confluent HPAEC were plated on gold microelectrodes and then stimulated with 1 μM S1P, FTY720, 1R, 1S, 2R, or 2S after either a 2-h preincubation with 100 ng/ml PTX, 30-min preincubation with 200 μM genistein (Gen), or 2-h preincubation with 2 mM MβCD or their respective vehicle controls. Data were pooled from multiple TER experiments (4-10 independent experiments per condition) and expressed as percentage inhibition of maximal barrier enhancement at 60 min relative to agonist-only control.

ERK = experiment: Western blotting of HPAEC lysates for phospho-ERK; assay type: cell-based, human; conditions: 5 min
Experimental: (§1) After treatment as outlined for individual experiments, confluent HPAEC were lysed for Western blotting with phospho-MLC, pan-MLC, phospho-ERK, or pan-ERK antibodies. […] Membranes were then immunoblotted with primary antibodies (1:500-1000, 4° C., overnight) followed by secondary antibodies conjugated to horseradish peroxidase (1:5000, room temperature, 30 min) and detected with enhanced chemiluminescence (Pierce ECL or SuperSignal West Dura; Pierce Biotechnology, Rockford, Ill.) on Biomax MR film (Carestream Health, Rochester, N.Y.).

MLC = experiment: Western blotting of HPAEC lysates for phospho-MLC; assay type: cell-based, human; conditions: 5 min
Experimental: as §1

HPAEC [5] = experiment: Transwell transendothelial permeability assay (FITC-dextran); assay type: cell-based, human; conditions: 1 μM (3R, 3S 25 μM), 1 h before FITC-dextran, 2-h incubation
Experimental: As a complementary approach to further characterize the barrier-protective effects of these FTY720 analogs in vitro, the permeability of FITC-labeled dextran across the pulmonary EC monolayer was assayed in response to treatment by the FTY720 analogs. […] Data were normalized to unstimulated control. n=3 independent experiments per condition; *, p<0.01 versus unstimulated condition (see FIG. 26).

[6] = test system: radiation-induced lung injury (RILI) in C57BL/6 mice; experiment: Murine model of RILI: BAL protein, BAL cell counts, BAL cytokines, EBD extravasation, body weight, lung histology; assay type: in vivo, mouse; conditions: 6 weeks
Experimental: Eight to 10-week-old C57BL/6J mice (Jackson Labs, Bar Harbor, Me.) were used for all studies in accordance with the University of Chicago Institutional Animal Care & Use Committee guidelines.
At the termination of each experiment, animals were euthanized by exsanguination under anesthesia in accordance with institutional guidelines. Both lungs were lavaged with 1.0 mL of Hank's buffered saline solution with the fluid allowed to equilibrate for 10 s before withdrawing. The pulmonary vasculature was perfused clear via the pulmonary artery with sterile phosphate-buffered saline (PBS). Both lungs were excised, weighed, and snap-frozen in liquid nitrogen for subsequent analysis. The BAL fluid collected was centrifuged at 500×g for 20 min at 4° C., and the supernatant was removed and recentrifuged at 12,000×g before snap-freezing. Cell pellets were resuspended in 0.5 mL of red blood cell lysis buffer (ACK Lysing Buffer; BioSource International, Camarillo, Calif.) for 20 min and then repelleted by centrifugation at 2500 rpm for 20 min at 4° C. The supernatant was decanted, and the cell pellet was resuspended in 0.2 mL of PBS for cellular analysis using a standard hemacytometer technique. A total of 300 BAL cells per slide were counted for cell differentials using a Diff-Quick-stained kit (Baxter Diagnostics, McGaw Park, Ill.). BAL protein concentrations were determined by a colorimetric BCA assay. Albumin concentrations in the BAL at 1:1000 and 1:100 dilutions, respectively, were quantitated by ELISA (Bethyl Labs, Montgomery, Tex.). To measure cytokines and chemokines, the BAL fluid was assayed with a Bioplex mouse cytokine kit (Bio-Rad, Hercules, Calif.) in accordance with the manufacturer's instructions.
All other chemicals were analytical or cell-culture grade and were obtained from various commercial sources. Evans Blue dye conjugated to albumin (EBA) was prepared by dissolving EBD to a concentration of 0.5% (5 mg/mL or 5.2 mM) in phosphate-buffered saline (PBS) (Ca^2+-Mg^2+ free; Invitrogen Corporation, Carlsbad, Calif.). To this solution, BSA was added to a final concentration of 4% (40 mg/mL or 0.6 mM), mixed well by stirring with a magnetic bar, allowed to stand for 30 min, and then sterile-filtered through a 0.22-μm syringe filter. The conjugate was stored in small aliquots at −80° C. To prevent cross-contamination, each aliquot was used only once in one animal and then discarded. 4, 6, 8, or 12 weeks after irradiation, the animals were injected with EBA via the jugular vein. At the end of exposure, the pulmonary circulation was flushed and lungs were harvested. Formamide extracts of lungs were prepared, with the initial modification that the homogenates were centrifuged at 12,000×g. Centrifugation at this relative centrifugal force (RCF) produced a compact pellet that allowed accurate measurement of the recovered volumes. Accurate estimation of such volumes is critical for calculating the final tissue dilution factor. Lungs, kidneys, and hearts from mice that were not injected with EBA were similarly extracted, to calculate the tissue-specific correction factors. […] Linear regression equations between absorbance at 740 nm (X) and 620 nm (Y) in tissue extracts of animals untreated with EBA were considered to be the tissue-specific correction factors. […] The EB concentration read in mg/mL was converted to μg/g wet weight of lungs using the dilution factor of the original homogenate as described above.
Eight to 10-week-old C57BL/6J mice (Jackson Labs, Bar Harbor, Me.) were used for all studies in accordance with the University of Chicago Institutional Animal Care & Use Committee guidelines. […] (FIG. 4A). Bronchoalveolar lavage (BAL) was performed as described above. BAL protein concentrations were determined by a colorimetric BCA assay. Albumin concentrations in the BAL at 1:1000 and 1:100 dilutions, respectively, were quantitated by ELISA (Bethyl Labs, Montgomery, Tex.).

[7] = test system: lung vascular leakage in RILI mice; experiment: ViSen FMT lung imaging of intravascular probe extravasation in RILI mice; assay type: in vivo, mouse; conditions: 0.1 mg/kg, 25 Gy, 6 weeks
Experimental: Lung imaging studies were also performed with assessment of RILI-induced extravasation of an intravascular probe.
To assess microvascular changes associated with RILI in real-time, mice were imaged with ViSen FMT 1500 Quantitative Tomography In Vivo Imaging System. Intergisens^750 NIR (ViSen Medicals, Bedford, Mass.) was used as a probe, which targets the vasculature as a selective non-peptide small molecule integrin αvβ3 antagonist and a near-infrared fluorochrome. Mice were injected with probe ([…], IV) at 6 weeks post radiation and imaged 24 hrs later. Probe intensity was quantified using TrueQuant 3D software (VisSen Medicals).

[8] = 0.01 or 0.1 mg/kg i.p. 2×/wk from 1 wk before irradiation (20 Gy)

T1 sequence (P21453 whole entry): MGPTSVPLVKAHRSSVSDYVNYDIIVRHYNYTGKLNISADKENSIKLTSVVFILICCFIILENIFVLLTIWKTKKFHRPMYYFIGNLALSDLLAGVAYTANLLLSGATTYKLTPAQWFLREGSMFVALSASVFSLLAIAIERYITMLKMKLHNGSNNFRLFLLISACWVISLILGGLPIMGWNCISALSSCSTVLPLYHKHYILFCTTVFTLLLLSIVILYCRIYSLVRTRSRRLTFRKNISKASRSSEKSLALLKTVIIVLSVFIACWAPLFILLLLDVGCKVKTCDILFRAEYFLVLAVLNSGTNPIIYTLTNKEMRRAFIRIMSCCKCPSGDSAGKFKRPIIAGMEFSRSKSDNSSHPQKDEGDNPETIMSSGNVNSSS

Structure (SMILES) | maximal percentage TER change compared with S1P and FTY720 (HPAEC [1]; 1 μM) | maximal TER change (HPAEC [1]) | S1PR1 expression level compared to control (S1P receptor 1 (S1PR1) [2]) [%] | activation of β-arrestin (blue/green emission ratio) (β-arrestin) | ubiquitination of S1PR1 at 2 h (S1P receptor 1 (S1PR1) [3]) | % Inhibition of Maximal TER Response (of Agonist-Only Control), PTX (HPAEC [4]) | % Inhibition of Maximal TER Response (of Agonist-Only Control), MβCD (HPAEC [4]) | % Inhibition of Maximal TER Response (of Agonist-Only Control), Gen (HPAEC [4]) | ERK phosphorylation (ERK) | further results
CCCCCCCCc1ccc(CC[C@](N)(CO)CCP(=O)(O)O)cc1 [1R, (R)-3-amino-3-(hydroxymethyl)-5-(4-octylphenyl)pentylphosphonic acid] | greater maximal percentage TER change | even greater maximal TER elevation | 47.2 | strongly activated | significant ubiquitination | 79.2 (±5.9) % | 67.0 (±19.7) % | 54.3 (±14.7) % | increased phosphorylation of ERK | S1PR1 expression, agonist without MG132 (S1P receptor 1 (S1PR1) [2]; 1 μM, 4 h (FIG. 18)): 66.3%; S1PR1 expression, agonist after MG132 pretreatment (S1P receptor 1 (S1PR1) [2]; MG132 10 μM 2 h, then 1 μM agonist 4 h): 94.2%; ubiquitination of S1PR1 at 1 h (S1P receptor 1 (S1PR1) [3]; 1 μM, 1 h): only slight ubiquitination
CCCCCCCCc1ccc(CC[C@@](N)(C=CP(=O)(O)O)CO)cc1 [2R, (R)-3-amino-3-(hydroxymethyl)-5-(4-octylphenyl)pent-1-enylphosphonic acid] | greater maximal percentage TER change | even greater maximal TER elevation | – | – | – | 88.1 (±7.8) % | 87.4 (±5.4) % | 41.1 (±12.2) % | increased phosphorylation of ERK | –
CCCCCCCCc1ccc(CC[C@](N)(C=CP(=O)(O)O)CO)cc1 [2S, (S)-3-amino-3-(hydroxymethyl)-5-(4-octylphenyl)pent-1-enylphosphonic acid] | – | somewhat barrier-disruptive | – | – | – | 76.3 (±12.0) % | 95.2 (±1.0) % | 91.6 (±2.4) % | failed to induce phosphorylation | –
CCCCCCCCc1ccc(CCC(O)(CN)CCO)cc1 (centres unmarked) [3R, 3-(aminomethyl)-5-(4-octylphenyl)pentane-1,3-diol] | – | – | – | – | – | – | – | – | did not increase ERK or MLC phosphorylation | TER response (tracing) (HPAEC [1]; 1 μM): barrier-disruptive; MLC phosphorylation (MLC): did not increase ERK or MLC phosphorylation; EC permeability to FITC-dextran vs control EC (HPAEC [5]): increase EC permeability
CC(C)C[C@@H](C=O)NC(=O)[C@H](CC(C)C)NC(=O)[C@H](CC(C)C)NC(=O)OCc1ccccc1 [MG132, reference compound] (Cbz-Leu-Leu-Leu-aldehyde) | – | – | – | – | – | – | – | – | – | S1PR1 expression, MG132 alone (S1P receptor 1 (S1PR1) [2]; 10 μM): did not affect the expression of S1PR1
FC(F)(F)c1cccc(-c2noc(-c3cc(-c4ccccc4)c(C(F)(F)F)s3)n2)c1 [SEW2871, 5-[4-phenyl-5-(trifluoromethyl)-2-thienyl]-3-[3-(trifluoromethyl)phenyl]-1,2,4-oxadiazole] | – | – | 30.3 | strongly activated | significant ubiquitination | – | – | – | – | lung histology: inflammatory cell infiltration and interstitial edema induced by radiation ([6]; 0.1 mg/kg i.p. 2×/wk, 25 Gy): to a lesser extent; BAL cell counts vs RILI-challenged controls [6, 8]: dose-dependent protective effect; BAL protein vs RILI-challenged controls [6, 8]: dose-dependent protective effect; radiation-induced probe extravasation (probe intensity), FMT imaging [7]: significant decreases
